Assay results published in patent EP0278997A1, “Azapropazone rectal capsules” (SIEGFRIED AKTIENGESELLSCHAFT, priority 1987, dated 1988).
“And” between values parts separate entries of the source, which are not always exact repeats. Equal entries are not always repeated. Where two headings read alike, the source gives them in different places.

Assay: Bioavailability of the rectal capsule versus i.v. administration (plasma AUC 0-72) in test subjects
Assay type: in vivo
Conditions: for AUC at 72 h: human, plasma, iv, read-out: A U C 0 - 72

CCCC1C(=O)N2C(N(C)C)=Nc3ccc(C)cc3N2C1=O (stereo not drawn) [Azapropazon, 3-Dimethyl-amino-7-methyl-1,2-(n-propyimaionyi)-1,2-dihydro-1,2.4-benzotriazin]
AUC at 72 h (geometric mean (geom.x) of 6 Probanden): 1060 µg·h/mL | AUC at 72 h (mean (x) of 6 Probanden): 1080 µg·h/mL | A U C 0 - 72 (individual Proband, 4320 min): 926.46 mcg/ml.Std and 728.31 mcg/ml.Std and 1158.02 mcg/ml.Std and 964.71 mcg/ml.Std and 1466.56 mcg/ml.Std and 1252.36 mcg/ml.Std
